According to patent US10479780B2, “Aminopyrazole derivatives” (Chugai Seiyaku Kabushiki Kaisha, priority 2015, dated 2019):
pIC50: −log10 of the molar value. Read-outs that look alike come from different tables or passages of the source.

How the values were obtained:
Type in all cases: biochemical
human Src enzyme = biological target: T1, human Src enzyme (Homo sapiens, UniProt P12931); assay: Src enzyme inhibitory activity (time-resolved fluorometry, biotinylated peptide phosphorylation); settings: read-out: SRC_IC50
T1 construct: purchased Carna Biosciences, Inc. 08-173
T1 sequence (P12931 whole entry): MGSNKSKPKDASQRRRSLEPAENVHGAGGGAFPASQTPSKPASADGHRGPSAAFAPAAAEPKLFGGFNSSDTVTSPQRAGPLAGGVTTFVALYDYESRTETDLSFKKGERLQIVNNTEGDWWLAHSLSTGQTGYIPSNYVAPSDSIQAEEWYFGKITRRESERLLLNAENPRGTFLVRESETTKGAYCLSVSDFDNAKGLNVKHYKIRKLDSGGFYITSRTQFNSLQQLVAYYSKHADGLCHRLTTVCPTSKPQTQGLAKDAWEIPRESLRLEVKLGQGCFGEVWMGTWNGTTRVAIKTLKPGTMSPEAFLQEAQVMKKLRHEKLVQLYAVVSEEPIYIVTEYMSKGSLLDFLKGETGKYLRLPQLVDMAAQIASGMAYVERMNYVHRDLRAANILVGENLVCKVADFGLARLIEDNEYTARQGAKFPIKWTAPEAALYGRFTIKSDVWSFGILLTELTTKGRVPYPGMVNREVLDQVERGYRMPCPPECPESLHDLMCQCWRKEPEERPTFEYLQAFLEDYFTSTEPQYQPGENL
Summary of the method: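 Compounds were tested for blocking tyrosine phosphorylation of a biotinylated peptide substrate by recombinant human Src. Phosphorylated product was quantified by time-resolved fluorometry using europium cryptate and XL665 conjugates, and IC50 was calculated against the compound-free control.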

human Yes1 enzyme = biological target: T2, human Yes1 enzyme (Homo sapiens, UniProt P07947); assay: Yes1 enzyme inhibitory activity (time-resolved fluorometry, biotinylated peptide phosphorylation); settings: read-out: YES_IC50
T2 construct: made in house
T2 sequence (P07947 whole entry): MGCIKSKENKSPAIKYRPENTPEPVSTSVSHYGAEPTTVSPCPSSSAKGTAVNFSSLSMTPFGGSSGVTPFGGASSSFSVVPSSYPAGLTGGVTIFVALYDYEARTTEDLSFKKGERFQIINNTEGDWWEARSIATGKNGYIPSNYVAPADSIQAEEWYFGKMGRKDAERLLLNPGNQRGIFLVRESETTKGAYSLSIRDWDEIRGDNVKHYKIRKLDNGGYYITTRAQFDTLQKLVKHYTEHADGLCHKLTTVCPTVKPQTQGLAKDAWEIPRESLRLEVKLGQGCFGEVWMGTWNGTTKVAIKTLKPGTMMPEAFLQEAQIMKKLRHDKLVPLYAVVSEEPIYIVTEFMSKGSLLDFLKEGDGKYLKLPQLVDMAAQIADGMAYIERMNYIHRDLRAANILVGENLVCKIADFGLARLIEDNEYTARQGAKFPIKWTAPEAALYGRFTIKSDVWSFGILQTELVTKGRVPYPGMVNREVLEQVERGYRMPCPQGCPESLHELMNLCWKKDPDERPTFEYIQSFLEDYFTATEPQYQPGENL
Summary of the method: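 Inhibition was expressed against a compound-free control to give IC50, using TR-FRET read-out (Eu-cryptate anti-pTyr antibody, streptavidin-XL665).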

human Lck enzyme = biological target: T3, human Lck enzyme (Homo sapiens, UniProt P06239); assay: Lck enzyme inhibitory activity (time-resolved fluorometry, biotinylated peptide phosphorylation); settings: read-out: LCK_IC50
T3 construct: purchased Carna Biosciences, Inc. 08-170
T3 sequence (P06239 whole entry): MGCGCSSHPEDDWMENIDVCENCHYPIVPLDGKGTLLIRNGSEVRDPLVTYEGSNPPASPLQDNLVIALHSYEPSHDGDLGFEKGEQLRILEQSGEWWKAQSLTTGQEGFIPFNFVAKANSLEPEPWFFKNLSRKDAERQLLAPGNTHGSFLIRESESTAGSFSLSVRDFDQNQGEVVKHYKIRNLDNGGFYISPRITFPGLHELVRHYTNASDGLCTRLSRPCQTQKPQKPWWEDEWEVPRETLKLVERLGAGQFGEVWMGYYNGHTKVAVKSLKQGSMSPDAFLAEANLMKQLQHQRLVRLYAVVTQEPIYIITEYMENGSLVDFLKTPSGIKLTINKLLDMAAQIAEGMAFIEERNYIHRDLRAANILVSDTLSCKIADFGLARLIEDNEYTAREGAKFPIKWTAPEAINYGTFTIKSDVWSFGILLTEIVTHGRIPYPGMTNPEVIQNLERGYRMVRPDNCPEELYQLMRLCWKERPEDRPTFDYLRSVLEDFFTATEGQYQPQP
Summary of the method: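 Readout pairs a europium cryptate-labelled anti-phosphotyrosine antibody with XL665-streptavidin, measured by time-resolved fluorescence. IC50 derived from percent inhibition against untreated controls.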

[1] = biotinylated peptide phosphorylation

SMILES	pIC50 (human Src enzyme)	pIC50 (human Yes1 enzyme)	pIC50 (human Lck enzyme)	pIC50 (human Src enzyme; [1])	pIC50 (human Yes1 enzyme; [1])	pIC50 (human Lck enzyme; [1])
Cc1cc(-n2ncc(C(=O)c3cc4cc(N5CCOCC5)c(N5CCC(N6CCOCC6)CC5)cc4[nH]3)c2N)ccc1Oc1ccccc1F [Example 5-1-165, [5-amino-1-[4-(2-fluorophenoxy)-3-methylphenyl]pyrazol-4-yl]-[5-morpholin-4-yl-6-(4-morpholin-4-ylpiperidin-1-yl)-1H-indol-2-yl] methanone]	6.47	8.74	7.43	–	–	–
Cc1cc2cc(C(=O)c3cnn(-c4cnc(Oc5c(F)cccc5F)cc4C)c3N)[nH]c2cc1N1C(=O)NC2(CCC2)C1=O [Example 5-1-341, 7-[2-[5-amino-1-[6-(2,6-difluorophenoxy)-4-methylpyridin-3-yl]pyrazole-4-carbonyl]-5-methyl-1H-indol-6-yl]-5,7-diazaspiro[3.4]octane-6,8-dione]	7.28	8.57	8.13	–	–	–
Cc1cc(Oc2c(F)cccc2F)ncc1-n1ncc(C(=O)c2cc3cc(C4CC4)c(NS(=O)(=O)C4CCOCC4)cc3[nH]2)c1N [Example 5-1-395, N-[2-[5-amino-1-[6-(2,6-difluorophenoxy)-4-methylpyridin-3-yl]pyrazole-4-carbonyl]-5-cyclopropyl-1H-indol-6-yl]oxane-4-sulfonamide]	6.68	8.32	7.18	–	–	–
Cc1cc(Oc2ccccc2F)ccc1-n1ncc(C(=O)c2cc3cc(F)c(NS(=O)(=O)CC(=O)N4CCN(C(C)C)CC4)cc3[nH]2)c1N [Example 4-10-003, N-[2-[5-amino-1-[4-(2-fluorophenoxy)-2-methylphenyl]pyrazole-4-carbonyl]-5-fluoro-1H-indol-6-yl]-2-oxo-2-(4-propan-2-ylpiperazin-1-yl)ethanesulfonamide 2,2,2-trifluoroacetate]	–	–	–	7.59	9.12	8.31
Cc1cc2cc(C(=O)c3cnn(-c4c(C)cc(Oc5cccc(F)c5F)cc4F)c3N)[nH]c2cc1NS(C)(=O)=O [Example 4-2-056, N-[2-[5-amino-1-[4-(2,3-difluorophenoxy)-2-fluoro-6-methylphenyl]pyrazole-4-carbonyl]-5-methyl-1H-indol-6-yl]methanesulfonamide]	–	–	–	7.01	8.41	7.62
Cc1cc(Oc2ccccc2F)ncc1-n1ncc(C(=O)c2cc3cc(OC(F)F)c(N4CCC(N5CCOCC5)CC4)cc3[nH]2)c1N [Example 4-25-030, [5-amino-1-[6-(2-fluorophenoxy)-4-methylpyridin-3-yl]pyrazol-4-yl]-[5-(difluoromethoxy)-6-(4-morpholin-4-ylpiperidin-1-yl)-1H-indol-2-yl]methanone]	–	–	–	7.42	8.59	8.04
Cc1cc2[nH]c(C(=O)c3cnn(-c4ccc(Oc5ccccc5F)cc4C)c3N)cc2cc1NS(C)(=O)=O [Example 4-2-049, N-[2-[5-amino-1-[4-(2-fluorophenoxy)-2-methylphenyl]pyrazole-4-carbonyl]-6-methyl-1H-indol-5-yl]methanesulfonamide]	–	–	–	8.72	9.54	8.77
Cc1cc(Oc2c(F)cccc2F)ncc1-n1ncc(C(=O)c2cc3cc(OCC(F)F)c(NS(=O)(=O)C4CCOCC4)cc3[nH]2)c1N [Example 5-1-319, N-[2-[5-amino-1-[6-(2,6-difluorophenoxy)-4-methylpyridin-3-yl]pyrazole-4-carbonyl]-5-(2,2-difluoroethoxy)-1H-indol-6-yl]oxane-4-sulfonamide]	7.06	8.55	7.74	–	–	–
Cc1cc(Oc2c(F)cccc2F)ncc1-n1ncc(C(=O)c2cc3cc(F)c(N4C(=O)C(C)(C)NC4=S)cc3[nH]2)c1N [Example 5-1-115, 3-[2-[5-amino-1-[6-(2,6-difluorophenoxy)-4-methylpyridin-3-yl]pyrazole-4-carbonyl]-5-fluoro-1H-indol-6-yl]-5,5-dimethyl-2-sulfanylideneimidazolidin-4-one]	7.28	8.64	8.15	–	–	–
Cc1cc(Oc2cccc(F)c2F)ccc1-n1ncc(C(=O)c2cc3cc(C4CCN(C(C)C)CC4)c(F)cc3[nH]2)c1N [Example 4-2-002, [5-amino-1-[4-(2,3-difluorophenoxy)-2-methylphenyl]pyrazol-4-yl]-[6-fluoro-5-(1-propan-2-ylpiperidin-4-yl)-1H-indol-2-yl]methanone]	–	–	–	8.46	9.05	8.43
Cc1cc(Oc2cccc(F)c2F)ccc1-n1ncc(C(=O)c2cc3cc(F)c(NS(N)(=O)=O)cc3[nH]2)c1N [Example 4-20-002, 2-[5-amino-1-[4-(2,3-difluorophenoxy)-2-methylphenyl]pyrazole-4-carbonyl]-5-fluoro-6-(sulfamoylamino)-1H-indole]	–	–	–	7.30	9.00	8.08
COc1cc2cc(C(=O)c3cnn(-c4cnc(Oc5c(F)cccc5F)cc4C)c3N)[nH]c2cc1NS(=O)(=O)CC(=O)N1CCOCC1 [Example 5-1-143, N-[2-[5-amino-1-[6-(2,6-difluorophenoxy)-4-methylpyridin-3-yl]pyrazole-4-carbonyl]-5-methoxy-1H-indol-6-yl]-2-morpholin-4-yl-2-oxoethanesulfonamide]	7.82	9.23	7.96	–	–	–
Cc1cc(Oc2ccccc2)cc(F)c1-n1ncc(C(=O)c2cc3cc(Cl)c(NS(C)(=O)=O)cc3[nH]2)c1N [Example 4-2-084, N-[2-[5-amino-1-(2-fluoro-6-methyl-4-phenoxyphenyl)pyrazole-4-carbonyl]-5-chloro-1H-indol-6-yl]methanesulfonamide]	–	–	–	6.80	8.20	7.14
Cc1cc(-n2ncc(C(=O)c3cc4cc(OC5CCN(C6CCC6)CC5)c(N)cc4[nH]3)c2N)ccc1Oc1ccccc1F [Example 5-1-232, [6-amino-5-(1-cyclobutylpiperidin-4-yl)oxy-1H-indol-2-yl]-[5-amino-1-[4-(2-fluorophenoxy)-3-methylphenyl]pyrazol-4-yl]methanone]	6.64	8.85	7.52	–	–	–
CS(=O)(=O)Nc1cc2[nH]c(C(=O)c3cnn(-c4c(F)cc(Oc5ccccc5F)cc4F)c3N)cc2cc1F [Example 5-1-022, N-[2-[5-amino-1-[2,6-difluoro-4-(2-fluorophenoxy)phenyl]pyrazole-4-carbonyl]-5-fluoro-1H-indol-6-yl]methanesulfonamide]	7.21	8.70	8.00	–	–	–
Cc1cc(Oc2c(F)cccc2F)ncc1-n1ncc(C(=O)c2cc3cc(N4CCOCC4)c(NS(=O)(=O)C4CC4)cc3[nH]2)c1N [Example 4-24-017, N-[2-[5-amino-1-[6-(2,6-difluorophenoxy)-4-methylpyridin-3-yl]pyrazole-4-carbonyl]-5-morpholin-4-yl-1H-indol-6-yl]cyclopropanesulfonamide]	–	–	–	6.77	8.39	7.19
Cc1cc(Oc2ccccc2F)ccc1-n1ncc(C(=O)c2cc3cc(F)c(NS(=O)(=O)NC4CCOCC4)cc3[nH]2)c1N [Example 4-5-003, [5-amino-1-[4-(2-fluorophenoxy)-2-methylphenyl]pyrazol-4-yl]-[5-fluoro-6-(oxan-4-ylsulfamoylamino)-1H-indol-2-yl]methanone]	–	–	–	7.54	9.17	7.96
Cc1cc(-n2ncc(C(=O)c3cc4cc(F)c(NS(C)(=O)=O)cc4[nH]3)c2N)cnc1Oc1ccccc1F [Example 5-1-039, N-[2-[5-amino-1-[6-(2-fluorophenoxy)-5-methylpyridin-3-yl]pyrazole-4-carbonyl]-5-fluoro-1H-indol-6-yl]methanesulfonamide]	5.21	6.92	5.70	–	–	–
Cc1cc2cc(C(=O)c3cnn(-c4ccc(Oc5cccc(F)c5F)cc4C)c3N)[nH]c2cc1NS(C)(=O)=O [Example 4-2-054, N-[2-[5-amino-1-[4-(2,3-difluorophenoxy)-2-methylphenyl]pyrazole-4-carbonyl]-5-methyl-1H-indol-6-yl]methanesulfonamide]	–	–	–	7.21	8.82	7.82
Cc1cc(Oc2c(F)cccc2F)ncc1-n1ncc(C(=O)c2cc3cc(F)c(N(C(C)C)S(C)(=O)=O)cc3[nH]2)c1N [Example 5-1-067, N-[2-[5-amino-1-[6-(2,6-difluorophenoxy)-4-methylpyridin-3-yl]pyrazole-4-carbonyl]-5-fluoro-1H-indol-6-yl]-N-propan-2-ylmethanesulfonamide]	7.21	8.64	8.25	–	–	–
Cc1cc(Oc2ccccc2F)ccc1-n1ncc(C(=O)c2cc3cc(OCC(F)F)c(N4CCCS4(=O)=O)cc3[nH]2)c1N [Example 4-25-009, [5-amino-1-[4-(2-fluorophenoxy)-2-methylphenyl]pyrazol-4-yl]-[5-(2,2-difluoroethoxy)-6-(1,1-dioxo-1,2-thiazolidin-2-yl)-1H-indol-2-yl]methanone]	–	–	–	7.49	8.46	7.74
Cc1cc(Oc2ccccc2Cl)nc(C)c1-n1ncc(C(=O)c2cc3cc(F)c(NS(C)(=O)=O)cc3[nH]2)c1N [Example 5-1-051, N-[2-[5-amino-1-[6-(2-chlorophenoxy)-2,4-dimethylpyridin-3-yl]pyrazole-4-carbonyl]-5-fluoro-1H-indol-6-yl]methanesulfonamide]	6.49	7.22	7.09	–	–	–
